In brackets after ≈: the same amount, converted by molar mass. Read-outs that look alike come from different tables or passages of the source.
Experiments:
Test in all cases: MIC, microdilution broth method (NCCLS)
Format in all cases: cell-based
E. coli OC2605 = details: A: E. coli OC2605, 35° C., 16-20 hours
Experimental: (§1) Minimal inhibitory concentration (MIC) has been an indicator of in vitro antibacterial activity widely used in the art. The in vitro antimicrobial activity of the compounds was determined by the microdilution broth method following the test method from the National Committee for Clinical Laboratory Standards (NCCLS). This method is described in the NCCLS Document M7-A4, Vol. 17, No. 2, “Methods for Dilution Antimicrobial Susceptibility Test for Bacteria that Grow Aerobically—Fourth Edition”, which is incorporated herein by reference.
(§2) In this method two-fold serial dilutions of drug in cation adjusted Mueller-Hinton broth are added to wells in microdilution trays. The test organisms are prepared by adjusting the turbidity of actively growing broth cultures so that the final concentration of test organism after it is added to the wells is approximately 5×10^4 CFU/well.
(§3) Following inoculation of the microdilution trays, the trays are incubated at 35° C. for 16-20 hours and then read. […] The amount of growth in the wells containing the test compound is compared with the amount of growth in the growth-control wells (no test compound) used in each tray. As set forth in Table 1, compounds of the present invention were tested against a variety of Gram positive and Gram negative pathogenic bacteria resulting in a range of activities depending on the organism tested.

E. faecalis ATCC29212 = details: C: E. faecalis ATCC29212, 35° C., 16-20 hours
Experimental: as §1, §2, §3

H. influenzae ATCC49247 = details: E: H. influenzae ATCC49247, 35° C., 16-20 hours
Experimental: as §1, §2, §3

S. aureus ATCC29213 = details: B: S. aureus ATCC29213, 35° C., 16-20 hours
Experimental: as §1, §2, §3

S. pneumoniae ATCC49619 = details: D: S. pneumoniae ATCC49619, 35° C., 16-20 hours
Experimental: as §1, §2, §3

| SMILES | MIC (E. coli OC2605; Escherichia coli, read-out: MIC) [µg/mL] | MIC (E. faecalis ATCC29212; Enterococcus faecalis, read-out: MIC) [µg/mL] | MIC (H. influenzae ATCC49247; Haemophilus influenzae, read-out: MIC) [µg/mL] | MIC (S. aureus ATCC29213; Staphylococcus aureus, read-out: MIC) [µg/mL] | MIC (S. pneumoniae ATCC49619; Streptococcus pneumoniae, read-out: MIC) [µg/mL] | MIC (E. coli OC2605) [µg/mL] | MIC (E. faecalis ATCC29212) [µg/mL] | MIC (H. influenzae ATCC49247) [µg/mL] | MIC (S. aureus ATCC29213) [µg/mL] | MIC (S. pneumoniae ATCC49619) |
| --- | --- | --- | --- | --- | --- | --- | --- | --- | --- | --- |
| CC[C@H]1OC(=O)[C@H](C)C(=O)[C@H](C)[C@@H](O[C@@H]2O[C@H](C)C[C@H](N(C)C)[C@H]2O)[C@](C)(OC(=O)NC/C=C/c2ccc(-c3ccn(C)n3)cc2)C[C@@H](C)C(=O)[C@H](C)[C@H]2NC(=O)O[C@@]21C [Compound 43, Carbamic acid, [(2E)-3-[4-(1-methyl-1H-pyrazol-3-yl)phenyl]-2-propenyl]-, (3aS,4R,7R,9R,10R,11R,13R,15R,15aR)-4-ethyltetradecahydro-3a,7,9,11,13,15-hexamethyl-2,6,8,14-tetraoxo-10-[[3,4,6-trideoxy-3-(dimethylamino)-β-D-xylo-hexopyranosyl]oxy]-2H-oxacyclotetradecino[4,3-d]oxazol-11-yl ester] | > 16 | 0.12 (≈ 0.143 µM) | 2 (≈ 2.39 µM) | 0.25 (≈ 0.298 µM) | 0.03 (≈ 0.0358 µM) |  |  |  |  |  |
| CC[C@H]1OC(=O)[C@H](C)C(=O)[C@H](C)[C@@H](O[C@@H]2O[C@H](C)C[C@H](N(C)C)[C@H]2O)[C@](C)(OC(=O)NC/C=C/c2ccc(-c3ccnn3C)cc2)C[C@@H](C)C(=O)[C@H](C)[C@H]2NC(=O)O[C@@]21C [Compound 44] |  |  |  |  |  | >16 | 0.12 (≈ 0.143 µM) | 2 (≈ 2.39 µM) | 0.25 (≈ 0.298 µM) | 0.12 µg/mL (≈ 0.143 µM) |
| CC[C@H]1OC(=O)[C@H](C)C(=O)[C@H](C)[C@@H](O[C@@H]2O[C@H](C)C[C@H](N(C)C)[C@H]2O)[C@](C)(OC(=O)NC/C=C/c2ccc(-c3ccc([N+](=O)[O-])cn3)cc2)C[C@@H](C)C(=O)[C@H](C)[C@H]2NC(=O)O[C@@]21C [Compound 45] |  |  |  |  |  | >16 | 0.5 (≈ 0.568 µM) | 4 (≈ 4.55 µM) | 1 (≈ 1.14 µM) | 0.25 µg/mL (≈ 0.284 µM) |
| CC[C@H]1OC(=O)[C@H](C)C(=O)[C@H](C)[C@@H](O[C@@H]2O[C@H](C)C[C@H](N(C)C)[C@H]2O)[C@](C)(OC(=O)NC/C=C/c2ccc(-n3cccn3)nc2)C[C@@H](C)C(=O)[C@H](C)[C@H]2NC(=O)O[C@@]21C [Compound 49] |  |  |  |  |  | 16 (≈ 19.4 µM) | 0.06 (≈ 0.0727 µM) | 2 (≈ 2.42 µM) | 0.25 (≈ 0.303 µM) | 0.06 µg/mL (≈ 0.0727 µM) |
| CC[C@H]1OC(=O)[C@H](C)C(=O)[C@H](C)[C@@H](O[C@@H]2O[C@H](C)C[C@H](N(C)C)[C@H]2O)[C@](C)(OC(=O)NC/C=C/C=C/c2cccc(-n3cncn3)n2)C[C@@H](C)C(=O)[C@H](C)[C@H]2NC(=O)O[C@@]21C [Compound 50] |  |  |  |  |  | 16 (≈ 18.8 µM) | 0.06 (≈ 0.0704 µM) | 2 (≈ 2.35 µM) | 0.25 (≈ 0.293 µM) | ≦0.015 μg/mL |
| CC[C@H]1OC(=O)[C@H](C)C(=O)[C@H](C)[C@@H](O[C@@H]2O[C@H](C)C[C@H](N(C)C)[C@H]2O)[C@](C)(OC(=O)NC/C=C/c2cccc(-n3cncn3)n2)C[C@@H](C)C(=O)[C@H](C)[C@H]2NC(=O)O[C@@]21C [Compound 51] |  |  |  |  |  | >16 | 0.12 (≈ 0.145 µM) | 8 (≈ 9.69 µM) | 0.5 (≈ 0.605 µM) | 0.06 µg/mL (≈ 0.0726 µM) |
| CC[C@H]1OC(=O)[C@H](C)C(=O)[C@H](C)[C@@H](O[C@@H]2O[C@H](C)C[C@H](N(C)C)[C@H]2O)[C@](C)(OC(=O)NC/C=C/c2cncc3ccccc23)C[C@@H](C)C(=O)[C@H](C)[C@H]2NC(=O)O[C@@]21C [Compound 52] |  |  |  |  |  | 8 (≈ 9.89 µM) | 0.12 (≈ 0.148 µM) | 2 (≈ 2.47 µM) | 0.25 (≈ 0.309 µM) | 0.03 µg/mL (≈ 0.0371 µM) |
| CC[C@H]1OC(=O)[C@H](C)C(=O)[C@H](C)[C@@H](O[C@@H]2O[C@H](C)C[C@H](N(C)C)[C@H]2O)[C@](C)(OC(=O)NC/C=C/c2ccc(-n3cncn3)c(F)c2)C[C@@H](C)C(=O)[C@H](C)[C@H]2NC(=O)O[C@@]21C [Compound 53] |  |  |  |  |  | 16 (≈ 19 µM) | 0.12 (≈ 0.142 µM) | 4 (≈ 4.75 µM) | 0.25 (≈ 0.297 µM) | 0.03 µg/mL (≈ 0.0356 µM) |
| CC[C@H]1OC(=O)[C@H](C)C(=O)[C@H](C)[C@@H](O[C@@H]2O[C@H](C)C[C@H](N(C)C)[C@H]2O)[C@](C)(OC(=O)NCC=C(c2ccccc2)c2ccccc2)C[C@@H](C)C(=O)[C@H](C)[C@H]2NC(=O)O[C@@]21C [Compound 54] |  |  |  |  |  | >16 | 0.5 (≈ 0.6 µM) | 2 (≈ 2.4 µM) | 1 (≈ 1.2 µM) | 0.12 µg/mL (≈ 0.144 µM) |
| CC[C@H]1OC(=O)[C@H](C)C(=O)[C@H](C)[C@@H](O[C@@H]2O[C@H](C)C[C@H](N(C)C)[C@H]2O)[C@](C)(OC(=O)NCc2ccc(-n3cncn3)c(F)c2)C[C@@H](C)C(=O)[C@H](C)[C@H]2NC(=O)O[C@@]21C [Compound 55] |  |  |  |  |  | 16 (≈ 19.6 µM) | 0.12 (≈ 0.147 µM) | 4 (≈ 4.9 µM) | 0.5 (≈ 0.612 µM) | 0.03 µg/mL (≈ 0.0367 µM) |

— patent US6613747B2, “6-O-carbamoyl ketolide antibacterials” (Ortho-McNeil Pharmaceutical, Inc., priority 2000, dated 2003)
